# Source: PubChem BioAssay AID1259334 (Broad Institute, 2017)
# Activity calls are given as the source filed them. Rule as the data show it: active = AC50 below about 11 µM.
# System: B cell line, TNFa signaling counterscreen reporter
# Assay: TNFa signaling inhibitors in B cell line, dose response, counter-screen (AID 1259334);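 also: cells stimulated with TNFa after compound preincubation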
row,Compound,AC50
1,CC(C)[C@H](CO)Nc1nc(Nc2cccc(Cl)c2)c2ncn(C(C)C)c2n1,3.58 µM
2,COc1ccccc1NC(c1cccnc1)c1ccc2cccnc2c1O (configuration not stated),8.22 µM
3,OC1CC2CCC(C1)N2CCCN1c2ccccc2Sc2ccc(Cl)cc21 (configuration not stated),9.1 µM
4,CN1C(=O)/C(=N\OC(=O)c2cccc3ccccc23)c2ccccc21,1.85 µM
5,COc1cccc(C#Cc2ccc([C@H]3[C@@H](C#N)N(C(=O)c4ccccn4)[C@@H]3CO)cc2)c1,10.3 µM
6,Cc1cc(OCC(=O)OCC(=O)NCc2ccco2)ccc1Cl,> 20 µM (inactive)
7,Clc1ccc(CSC(Cn2ccnc2)c2ccc(Cl)cc2Cl)cc1 (configuration not stated),> 20 µM (inactive)
8,CC(=O)Nc1ccc(Sc2ccc([N+](=O)[O-])o2)cc1,1.64 µM
9,C[C@H]1CN([C@@H](C)CO)C(=O)c2c(c3ccccc3n2C)-c2ccccc2CO[C@H]1CN(C)C(=O)Nc1cccc(C(F)(F)F)c1,> 20 µM (inactive)
10,COc1ccc2cc(-c3cc(C(=O)O)c4ccccc4n3)ccc2c1,6.93 µM
11,C[C@@H]1O[C@@H](O[C@H]2C[C@@H](O)[C@]3(CO)C4C(CC[C@]3(O)C2)[C@@]2(O)CC[C@H](C3=CC(=O)OC3)[C@@]2(C)C[C@H]4O)[C@H](O)[C@H](O)[C@H]1O (some centres not stated),0.138 µM
12,CC(=O)OC1CCC2(C)C(CCC3C4CC=C(C(C)=O)C4(C)OC(=O)CC32)C1 (configuration not stated),1.65 µM
13,CS(=O)(=O)c1ccc(C(=O)OCC(=O)NC(=O)C2CCCCC2)cc1[N+](=O)[O-],2.79 µM
14,COc1ccc2c3c([nH]c2c1)[C@H](CO)N(C(=O)Nc1ccc(F)cc1)CC31CCN(C(=O)c2ccccc2F)CC1,6.12 µM
15,O=C(O)c1ccc(Nc2nc3c(s2)CCCC3)cc1,5.3 µM
16,CSc1ccc2c(c1)N(CCC1CCCCN1C)c1ccccc1S2 (configuration not stated),6.07 µM
17,Cc1cnc(NC(=O)c2ccc(OCC3CCCO3)cc2)s1 (configuration not stated),4.02 µM
18,Cc1ccccc1C(=O)N1CCC(C(=O)Nc2nc3ccc(F)cc3s2)CC1,7.86 µM
19,CCN1/C(=C/c2sc(-c3ccccc3C)c[n+]2C)Sc2ccccc21,0.574 µM
20,Cc1c(C(=O)c2cccc3ccccc23)c2cccc3c2n1[C@H](CN1CCOCC1)CO3,10.2 µM
21,O=C(Nc1ccc(C(F)(F)F)cc1)Nc1ccc2c(c1)[C@H]1C[C@@H](CC(=O)N3CCc4ccccc4C3)O[C@H](CO)[C@H]1O2,10.7 µM
22,CCCNC(=O)N1[C@@H](C#N)[C@H](c2ccc(-c3cccc(OC)c3)cc2)[C@@H]1CO,> 20 µM (inactive)
23,Oc1cc2c(cc1C(c1ccc(Br)cc1)N1CCCC1)OCO2 (configuration not stated),6.97 µM
24,CCCNC(=O)c1cc2c(c(-c3cccc(-c4cc5ccccc5o4)c3)n1)[C@H](CCO)N(C(=O)NC(C)C)C2,> 20 µM (inactive)

row,Compound,AC50
1,C=C1C(=O)O[C@H]2[C@H]1CC/C(C)=C/CC[C@@]1(C)O[C@@H]21,3.54 µM
2,Cc1ccc(S(=O)(=O)NC(C(=O)Oc2cc3oc(=O)cc(C)c3cc2Cl)C(C)C)cc1 (configuration not stated),9.41 µM
3,Oc1c(Cl)cc(Cl)cc1Sc1cc(Cl)cc(Cl)c1O,3.41 µM
4,C=C1C(=O)OC2CC1C(O)CC(C)=CCCC(C)=CC(O)CC2C (configuration not stated),2.27 µM
5,CC1CCCC=CC2CC(OC(=O)CN(C)C)CC2C(O)C=CC(=O)O1 (configuration not stated),0.0509 µM
6,O=C(/C=C/c1cccs1)c1ccc(N2CCOCC2)cc1,3.87 µM
7,O=C1c2c(O)ccc(O)c2C(=O)c2c(NCCNCCO)ccc(NCCNCCO)c21,1.18 µM
8,Cn1cnc([N+](=O)[O-])c1S(=O)(=O)Oc1cccc2ccccc12,0.397 µM
9,[O-]C(=C(C(=S)Nc1cccc2ccccc12)[n+]1ccccc1)c1ccc2c(c1)OCCO2,> 20 µM (inactive)
10,CC(C)(C)[C@H](N)C(=O)N[C@H]1CCC2C3CC=C4C[C@@H](O)CC[C@]4(C)C3CC[C@@]21C (some centres not stated),4.1 µM
11,Clc1ccc(COC(Cn2ccnc2)c2ccc(Cl)cc2Cl)c(Cl)c1 (configuration not stated),8.2 µM
12,O=S(c1ccccc1O)S(=O)c1ccccc1O (configuration not stated),> 20 µM (inactive)
13,O=C1/C(=C/c2ccccc2)C[C@@]2(O)C3Cc4ccc(O)c5c4[C@@]2(CCN3CC2CC2)[C@H]1O5,1.34 µM
14,O=C(NCCc1ccccc1)c1ccc2nccnc2c1,7.65 µM
15,CC(=NNc1ccc2ccccc2n1)c1ccccc1O,1.52 µM
16,COc1ccc(C[C@H]2NC[C@H](O)[C@H]2OC(C)=O)cc1,0.0144 µM
17,CC1=C(SCCO)C(=O)c2ccccc2C1=O,2.22 µM
18,CC(C)(C)OC(=O)CC(S(=O)(=O)c1ccccc1)S(=O)(=O)c1ccccc1,1.07 µM
19,Clc1ccc(C(Cn2ccnc2)OCc2ccsc2Cl)c(Cl)c1 (configuration not stated),4.05 µM
20,COc1ccc(C(=O)/C=C/C(=O)N(CC(=O)NC2CCCCC2)Cc2ccc(F)cc2)c(O)c1,5.1 µM
21,CSC1SCC2C(=O)N(C)C(C(C)C)C(=O)OCC(NC(=O)c3cnc4ccccc4n3)C(=O)NC(C)C(=O)N(C)C1C(=O)N(C)C(C(C)C)C(=O)OCC(NC(=O)c1cnc3ccccc3n1)C(=O)NC(C)C(=O)N2C (configuration not stated),< 0.0005 µM
22,Cc1ccc(S(=O)(=O)C=CS(=O)(=O)c2ccc(C)cc2)cc1,1.22 µM
23,O=C(C#Cc1ccccc1)c1ccccc1,5.68 µM
